Test results: PubChem BioAssay AID2060333 (Molecular Pharmacology Branch, DTP, NCI, 2025)
Several values for one entry are separate records, joined by “and”; a condition that tells them apart may be missing. Equal values may be shown once. Each block holds one molecule with its values, some of them ahead of it.

System: 845751-090-R-J2-PDC tumor spheroid viability
Assay: Anticancer human tumor 845751-090-R-J2-PDC patient-derived head and neck squamous carcinoma cell line growth inhibition [IpAb]
Conditions: spheroids with HUVEC and MSC; for viability, T/C: stronger effect = lower value
Summary of the method: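 Combinations with ipatasertib or abemaciclib were tested on tumour spheroids holding HUVEC (25%) and MSC (15%) alongside 60% malignant cells. Top concentration was at or near clinical Cmax (10 microM if undefined), descending in half-log steps.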

[1] = curve of first compound, second compound 0.1 µM
[2] = curve of first compound, second compound 0.316 µM
[3] = curve of first compound, second compound 1 µM
[4] = curve of first compound, second compound 0.01 µM
[5] = curve of first compound, second compound 0.0316 µM
[6] = second compound 0.01 µM, first compound 0.00949 µM
[7] = second compound 0.01 µM, first compound 0.03 µM
[8] = second compound 0.01 µM, first compound 0.0949 µM
[9] = second compound 0.01 µM, first compound 0.3 µM
[10] = second compound 0.0316 µM, first compound 0.00949 µM
[11] = second compound 0.0316 µM, first compound 0.03 µM
[12] = second compound 0.0316 µM, first compound 0.0949 µM
[13] = second compound 0.0316 µM, first compound 0.3 µM
[14] = second compound 0.1 µM, first compound 0.00949 µM
[15] = second compound 0.1 µM, first compound 0.03 µM
[16] = second compound 0.1 µM, first compound 0.0949 µM
[17] = second compound 0.1 µM, first compound 0.3 µM
[18] = second compound 0.316 µM, first compound 0.00949 µM
[19] = second compound 0.316 µM, first compound 0.03 µM
[20] = second compound 0.316 µM, first compound 0.0949 µM
[21] = second compound 0.316 µM, first compound 0.3 µM
[22] = second compound 1 µM, first compound 0.00949 µM
[23] = second compound 1 µM, first compound 0.03 µM
[24] = second compound 1 µM, first compound 0.0949 µM
[25] = second compound 1 µM, first compound 0.3 µM
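Note: spheroids exposed to compounds for 7 days before readout.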
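Throughout, for viability, T/C: CTG3D luminescence normalised so that 100% = DMSO vehicle control.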

SMILES: COc1c(OCCCN2CCOCC2)ccc2c3n(c(=NC(=O)c4cnc(N)nc4)nc12)CCN3 + CC(C)NCC(C(=O)N1CCN(c2ncnc3c2C(C)CC3O)CC1)c1ccc(Cl)cc1
IC50 [1]: 7.18 nM
IC50 [2]: < 3.16 nM
IC50 [3]: < 3.16 nM
IC50 (curve of first compound, second compound 3.16 µM): < 3.16 nM
IC50 (curve of first compound, second compound 10 µM): < 3.16 nM
viability, T/C (second compound 0.1 µM, first compound 0.00316 µM): 60.9%
viability, T/C (second compound 0.1 µM, first compound 0.01 µM): 46.1%
viability, T/C (second compound 0.1 µM, first compound 0.0316 µM): 32.1%
viability, T/C (second compound 0.1 µM, first compound 0.1 µM): 19.5%
viability, T/C (second compound 0.1 µM, first compound 0.316 µM): 16.5%
viability, T/C (second compound 0.1 µM, first compound 1 µM): 3.52%
viability, T/C (second compound 0.316 µM, first compound 0.00316 µM): 26.4%
viability, T/C (second compound 0.316 µM, first compound 0.01 µM): 27.3%
viability, T/C (second compound 0.316 µM, first compound 0.0316 µM): 38.4%
viability, T/C (second compound 0.316 µM, first compound 0.1 µM): 17%
viability, T/C (second compound 0.316 µM, first compound 0.316 µM): 9.83%
viability, T/C (second compound 0.316 µM, first compound 1 µM): 5.73%
viability, T/C (second compound 1 µM, first compound 0.00316 µM): 34.6%
viability, T/C (second compound 1 µM, first compound 0.01 µM): 21.8%
viability, T/C (second compound 1 µM, first compound 0.0316 µM): 17.1%
viability, T/C (second compound 1 µM, first compound 0.1 µM): 9.67%
viability, T/C (second compound 1 µM, first compound 0.316 µM): 5.4%
viability, T/C (second compound 1 µM, first compound 1 µM): 2.49%
viability, T/C (second compound 3.16 µM, first compound 0.00316 µM): 22.5%
viability, T/C (second compound 3.16 µM, first compound 0.01 µM): 21.9%
viability, T/C (second compound 3.16 µM, first compound 0.0316 µM): 17.7%
viability, T/C (second compound 3.16 µM, first compound 0.1 µM): 7.76%
viability, T/C (second compound 3.16 µM, first compound 0.316 µM): 3.93%
viability, T/C (second compound 3.16 µM, first compound 1 µM): 2.76%
viability, T/C (second compound 10 µM, first compound 0.00316 µM): 17.4%
viability, T/C (second compound 10 µM, first compound 0.01 µM): 17.7%
viability, T/C (second compound 10 µM, first compound 0.0316 µM): 13.4%
viability, T/C (second compound 10 µM, first compound 0.1 µM): 5.23%
viability, T/C (second compound 10 µM, first compound 0.316 µM): 2.57%
viability, T/C (second compound 10 µM, first compound 1 µM): 1.62%

IC50 (curve of compound): > 100 nM
SMILES: Cn1ncnc1[C@H]1c2n[nH]c(=O)c3cc(F)cc(c23)N[C@@H]1c1ccc(F)cc1
viability, T/C (compound 0.000316 µM): 81.7% and 97.4%
viability, T/C (compound 0.001 µM): 80% and 90.8%
viability, T/C (compound 0.00316 µM): 137% and 113%
viability, T/C (compound 0.01 µM): 105% and 91.3%
viability, T/C (compound 0.0316 µM): 100% and 106%
viability, T/C (compound 0.1 µM): 96.4% and 111%

SMILES: CC(=O)c1c(C)c2cnc(Nc3ccc(N4CCNCC4)cn3)nc2n(C2CCCC2)c1=O + CCN1CCN(Cc2ccc(Nc3ncc(F)c(-c4cc(F)c5nc(C)n(C(C)C)c5c4)n3)nc2)CC1
IC50 [4]: > 300 nM
IC50 [5]: > 300 nM
IC50 [1]: > 300 nM
IC50 [2]: > 300 nM
IC50 [3]: > 300 nM
viability, T/C (second compound 0.01 µM, first compound 0.000949 µM): 115%
viability, T/C (second compound 0.01 µM, first compound 0.003 µM): 93.8%
viability, T/C [6]: 84.8%
viability, T/C [7]: 91%
viability, T/C [8]: 93.4%
viability, T/C [9]: 76.7%
viability, T/C (second compound 0.0316 µM, first compound 0.000949 µM): 77.2%
viability, T/C (second compound 0.0316 µM, first compound 0.003 µM): 62.8%
viability, T/C [10]: 63.6%
viability, T/C [11]: 73.9%
viability, T/C [12]: 65.5%
viability, T/C [13]: 59.2%
viability, T/C (second compound 0.1 µM, first compound 0.000949 µM): 49.8%
viability, T/C (second compound 0.1 µM, first compound 0.003 µM): 71.8%
viability, T/C [14]: 75.4%
viability, T/C [15]: 71.2%
viability, T/C [16]: 75.9%
viability, T/C [17]: 65.8%
viability, T/C (second compound 0.316 µM, first compound 0.000949 µM): 53.1%
viability, T/C (second compound 0.316 µM, first compound 0.003 µM): 69.7%
viability, T/C [18]: 88%
viability, T/C [19]: 81.7%
viability, T/C [20]: 61%
viability, T/C [21]: 50.6%
viability, T/C (second compound 1 µM, first compound 0.000949 µM): 90.4%
viability, T/C (second compound 1 µM, first compound 0.003 µM): 86.4%
viability, T/C [22]: 99.5%
viability, T/C [23]: 77.7%
viability, T/C [24]: 70.9%
viability, T/C [25]: 53.6%

SMILES: Cn1cnc2c(F)c(Nc3ccc(Br)cc3Cl)c(C(=O)NOCCO)cc21 + CCN1CCN(Cc2ccc(Nc3ncc(F)c(-c4cc(F)c5nc(C)n(C(C)C)c5c4)n3)nc2)CC1
IC50 [4]: > 3000 nM
IC50 [5]: > 3000 nM
IC50 [1]: > 3000 nM
IC50 [2]: > 3000 nM
IC50 [3]: > 3000 nM
viability, T/C [6]: 198%
viability, T/C [7]: 194%
viability, T/C [8]: 139%
viability, T/C [9]: 129%
viability, T/C (second compound 0.01 µM, first compound 0.949 µM): 109%
viability, T/C (second compound 0.01 µM, first compound 3 µM): 69.8%
viability, T/C [10]: 171%
viability, T/C [11]: 148%
viability, T/C [12]: 125%
viability, T/C [13]: 107%
viability, T/C (second compound 0.0316 µM, first compound 0.949 µM): 89.3%
viability, T/C (second compound 0.0316 µM, first compound 3 µM): 71.5%
viability, T/C [14]: 147%
viability, T/C [15]: 137%
viability, T/C [16]: 135%
viability, T/C [17]: 106%
viability, T/C (second compound 0.1 µM, first compound 0.949 µM): 82.3%
viability, T/C (second compound 0.1 µM, first compound 3 µM): 63.8%
viability, T/C [18]: 163%
viability, T/C [19]: 150%
viability, T/C [20]: 136%
viability, T/C [21]: 128%
viability, T/C (second compound 0.316 µM, first compound 0.949 µM): 101%
viability, T/C (second compound 0.316 µM, first compound 3 µM): 97.2%
viability, T/C [22]: 159%
viability, T/C [23]: 167%
viability, T/C [24]: 138%
viability, T/C [25]: 114%
viability, T/C (second compound 1 µM, first compound 0.949 µM): 107%
viability, T/C (second compound 1 µM, first compound 3 µM): 64%
